# Reference: patent US20220274980A1, “PHARMACOLOGICAL INHIBITORS OF THE ENL YEATS DOMAIN” (priority 2019, published 2022)
# What was measured:
# [1] = molecular target: T1, BRD4 bromodomain 1 (BD1) (Homo sapiens, UniProt O60885); assay: BRD4 (BD1)-H4 tetra-acetylated HTRF histone-binding assay
# T1 construct: Selectivity against BRD4 bromodomain 1 (BD1), measured by HTRF; His; purchased Cayman 11720
# Protocol: (§1) Protein Production. Double stranded DNA fragments encoding the protein sequence of ENL YEATS(1-148) were synthesized (IDT DNA) for assembly-based cloning into a modified expression vector backbone derived from pET21a (Novagen). The protein was fused to a StrepII-SUMO and 6×His tag on the amino and carboxy terminus, respectively. Transformed BL21(DE3) cells (New England Biolabs) were grown at 37° C. in 2×YT growth medium to an OD600 of 0.6. Protein expression was induced at 25° C. with the addition of isopropyl-β-D-thiogalactopyranoside (IPTG) to a final concentration of 0.4 mM. The culture was harvested by centrifugation following a 20-hour incubation and subsequently purified by immobilized metal affinity chromatography. Cells were resuspended 50 mM Tris-HCl pH 8.0, 300 mM NaCl, 10% glycerol, 10 mM imidazole, 1 mM DTT containing Complete EDTA-free protease inhibitor (Roche) and lysed by two passes through a MicroFluidizer at 10,000 psi. The lysate was clarified by centrifugation at 16,000 rpm for 30 minutes at 4° C. The supernatant was passed over NiNTA agarose (QIAGEN) and the protein was eluted in 50 mM Tris-HCl pH 8.0, 300 mM NaCl, 10% glycerol, 250 mM imidazole, 1 mM DTT. Fractions containing the ENL YEATS(1-148) fusion protein were buffer exchanged into 100 mM Tris-HCl pH 8.0, 150 mM NaCl, 1 mM EDTA, 1 mM DTT using PD10 desalting columns (GE Life Sciences). Ulp1 protease was added to cleave the StrepII-SUMO fusion and the reaction mixture was incubated overnight at 4° C. The cleavage reaction mixture was loaded onto a StrepTrap column (GE Life Sciences) and ENL YEATS(1-148) was recovered in the flow through. BRD4 BD1 was purchased from Cayman (Cat. No. 11720).
# (§2) Homogenous time-resolved FRET (HTRF) histone-binding assays. Both HTRF assays were performed by combining recombinant protein and synthetic histone peptide in assay buffer (25 mM HEPES pH 7, 20 mM NaCl, 0.2% Pluronic F-127, and 0.05% BSA) with 1 nM LanthaScreen Eu-anti-His Tag antibody (ThermoFisher, Cat. No, PV5597) and 8.9 nM SureLight allophycocyanin-streptavidin (Perkin Elmer, APC-SA, Cat. No. CR130-100). ENL YEATS was used at 5 nM and BRD4 BD1 was used at 10 nM. ENL assays were performed with H3(13-32)K27cr (13.3 and 100 nM, respectively), custom synthesized at ABclonal (N-terminal biotin, C-terminal amide); BRD4 BD1 assay was performed with 13.3 nM tetra-acetylated H4 (BioVision, Cat. No. 7144-01). Once all reagents were combined (with or without peptide), 10 μL was dispensed per well into black 384-well low-volume plates (Corning, Cat. No. 3821) and drug was added by pin tool transfer (Biomek FX). Assays were incubated for 2 or more hours before measurement of HTRF signal on a PHERAstar plate reader (BMG Labtech; simultaneous dual emission; excitation=337 nm, emission 1=665 nm, emission 2=620 nm). HTRF signal (ratio of emission 1 to emission 2) from vehicle-treated wells (maximum signal) and no-peptide-control wells (minimum signal) were used to calculate percent inhibition for drug-treated wells.
# [2] = molecular target: T2, ENL YEATS domain (association with H3K27cr) (Homo sapiens, UniProt Q03111); assay: biochemical; conditions: ENL (YEATS)-H3K27cr HTRF (IC50, μM)
# T2 sequence (Q03111 1-148): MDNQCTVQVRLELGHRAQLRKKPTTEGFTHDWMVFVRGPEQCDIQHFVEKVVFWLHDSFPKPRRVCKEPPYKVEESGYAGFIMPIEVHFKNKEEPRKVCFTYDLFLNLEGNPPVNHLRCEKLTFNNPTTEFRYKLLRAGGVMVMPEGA
# Protocol: as §1, §2
# [3] = molecular target: T3, ENL(YEATS)-HiBiT (Homo sapiens, UniProt Q03111); assay: cell-based
# T3 sequence (Q03111 1-138 limits assumed): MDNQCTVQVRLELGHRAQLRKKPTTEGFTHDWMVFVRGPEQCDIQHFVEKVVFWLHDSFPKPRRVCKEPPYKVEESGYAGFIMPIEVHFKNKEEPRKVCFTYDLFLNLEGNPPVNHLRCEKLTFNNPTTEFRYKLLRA
# Protocol: Cellular thermal shift assay (CETSA). […] Cells were transferred to 384-well (20,000 cells per well in 20 μL) or 1,536-well (3,000 cells per well in 4 μL) plates and drug was transferred using a 100 nL pin tool for 384-well plates or acoustic transfer (Labcyte, Echo Liquid Handler) for 1,536-well plates. Luminescent detection of HiBiT was performed by combining an equal volume of Nano-Glo HiBiT Lytic Reagent (Promega, HiBiT Lytic Detection System, Cat. No. N3040) in each well. […] Briefly, cells were treated with drug, washed with PBS, heated to various temperatures in a thermocycler, cooled to room temperature, lysed by three rounds of freeze-thaw, and then clarified lystaes were subjected to immunoblot analysis.
IC50 ([1]; Table 1),IC50 ([1]; Table 2),IC50 ([2]; Table 1),IC50 ([2]; Table 2),IC50 [3],Structure (SMILES)
> 50 µM,> 50 µM,2.9 µM,2.9 µM,80 µM,CC(C)NC(=O)c1ccc2nc(-c3ccc(C#N)cc3)cn2c1 [Compound 4]
> 50 µM,> 50 µM,4.1 µM,4.1 µM,62 µM,CC(C)NC(=O)c1ccc2nc(-c3ccncc3)cn2c1 [Compound 5]
> 50 µM,> 50 µM,6.8 µM,6.8 µM,80 µM,O=C(NCc1cccnc1)c1ccc2nc(-c3ccccc3)cn2c1 [Compound 9]
> 50 µM,> 50 µM,2.6 µM,2.6 µM,80 µM,Cc1ccc(-c2cn3cc(C(=O)NC(C)C)ccc3n2)cc1 [Compound 14]
> 50 µM,> 50 µM,0.506 µM,0.506 µM,4.04 µM,O=C(NC1CCC1)c1ccc2nc(-c3ccccc3)cn2c1 [Compound 15]
> 50 µM,> 50 µM,20 µM,20 µM,80 µM,O=C(NC1CCCC(O)C1)c1ccc2nc(-c3ccccc3)cn2c1 (stereo not drawn) [Compound 16]
> 50 µM,> 50 µM,4.8 µM,4.8 µM,80 µM,Cc1cccc(-c2cn3cc(C(=O)NC(C)C)ccc3n2)c1 [Compound 17]
> 50 µM,> 50 µM,4.5 µM,4.5 µM,80 µM,CC(C)NC(=O)c1ccc2nc(-c3cccc(C#N)c3)cn2c1 [Compound 18]
> 50 µM,> 50 µM,24 µM,24 µM,80 µM,COc1cccc(-c2cn3cc(C(=O)NC(C)C)ccc3n2)c1 [Compound 20]
> 50 µM,> 50 µM,1.3 µM,1.3 µM,80 µM,COc1ccc(-c2cn3cc(C(=O)NC(C)C)ccc3n2)cc1 [Compound 22]
> 50 µM,> 50 µM,1.8 µM,1.8 µM,41 µM,O=C(NC1CCCC1)c1ccc2nc(-c3ccccc3)cn2c1 [Compound 23]
> 50 µM,> 50 µM,12 µM,12 µM,80 µM,CC(NC(=O)c1ccc2nc(-c3ccccc3)cn2c1)c1ccncc1 (stereo not drawn) [Compound 24]
> 50 µM,> 50 µM,0.46 µM,0.46 µM,,CC(C)NC(=O)c1ccc2nc(-c3cccc(NS(=O)(=O)NCCCCCCCC(=O)O)c3)cn2c1 [Compound 63]
> 50 µM,> 50 µM,0.34 µM,0.34 µM,,CC(C)NC(=O)c1ccc2nc(-c3cccc(NS(=O)(=O)NCCCN4CCCC4)c3)cn2c1 [Compound 64]
> 50 µM,> 50 µM,0.32 µM,0.32 µM,,CC(C)NC(=O)c1ccc2nc(-c3cccc(NS(=O)(=O)NC[C@H]4CC[C@H](C(=O)O)CC4)c3)cn2c1 [Compound 65]
> 50 µM,> 50 µM,0.63 µM,0.63 µM,,CC(C)NC(=O)c1ccc2nc(-c3cccc(NS(=O)(=O)NCCC(=O)O)c3)cn2c1 [Compound 66]
> 50 µM,> 50 µM,0.33 µM,0.33 µM,,CC(C)NC(=O)c1ccc2nc(-c3cccc(NS(=O)(=O)NCCCn4ccnc4)c3)cn2c1 [Compound 67]
> 50 µM,> 50 µM,0.61 µM,0.61 µM,,CC(C)NC(=O)c1ccc2nc(-c3cccc(N=S(=O)(F)N4CCC[C@@H]4C(=O)O)c3)cn2c1 (stereo partly drawn) [Compound 68]
,,> 50 µM,> 50 µM,27.3 µM,O=C(NC1COC1)c1ccc2nc(-c3ccccc3)cn2c1 [Compound 70]

IC50 ([1]; Table 1),IC50 ([1]; Table 2),IC50 ([2]; Table 1),IC50 ([2]; Table 2),IC50 [3],Structure (SMILES)
,,1.17 µM,1.17 µM,5.52 µM,Cc1ccc(-c2cn3cc(C(=O)NC4CCC4)ccc3n2)cc1 [Compound 71]
,,2.29 µM,2.29 µM,8.9 µM,O=C(N[C@@H]1CCc2ccccc21)c1ccc2nc(-c3ccccc3)cn2c1 [Compound 74]
,,> 50 µM,> 50 µM,35.4 µM,O=C(NC1CC(O)C1)c1ccc2nc(-c3ccccc3)cn2c1 (stereo not drawn) [Compound 76]
,,3.27 µM,3.27 µM,7.88 µM,COc1ccc(-c2cn3cc(C(=O)NC4CCC4)ccc3n2)cc1 [Compound 78]
,,21.3 µM,21.3 µM,25.6 µM,O=C(NC1CC(CO)C1)c1ccc2nc(-c3ccccc3)cn2c1 (stereo not drawn) [Compound 85]
,,1.3 µM,1.3 µM,2.51 µM,N#Cc1ccc(-c2cn3cc(C(=O)NC4CCC4)ccc3n2)cc1 [Compound 86]
,,0.163 µM,0.163 µM,7.75 µM,CC1CCCCN1CCNS(=O)(=O)Nc1cccc(-c2cn3cc(C(=O)NC4CCC4)ccc3n2)c1 (stereo not drawn) [Compound 96]
,,0.206 µM,0.206 µM,2.8 µM,O=C(NC1CCC1)c1ccc2nc(-c3cccc(NS(=O)(=O)NCCN4CCC(F)(F)CC4)c3)cn2c1 [Compound 97]
,,0.101 µM,0.101 µM,12 µM,O=C(NC1CCC1)c1ccc2nc(-c3cccc(NS(=O)(=O)NCC(=O)N4CCCCC4)c3)cn2c1 [Compound 98]
,,0.05 µM,0.05 µM,0.742 µM,O=C(NC1CCC1)c1ccc2nc(-c3cccc(NS(=O)(=O)NCCN4CCC(O)CC4)c3)cn2c1 [Compound 99]
,,0.243 µM,0.243 µM,6.14 µM,O=C(O)COC1CCN(CCC(=O)Nc2cccc(-c3cn4cc(C(=O)NC5CCC5)ccc4n3)c2)CC1 [Compound 111]
,,36 µM,36 µM,35 µM,O=C(NC1CCC1O)c1ccc2nc(-c3ccccc3)cn2c1 (stereo not drawn) [Compound 116]
,,10 µM,10 µM,19 µM,C#CC1CC(NC(=O)c2ccc3nc(-c4ccccc4)cn3c2)C1 (stereo not drawn) [Compound 117]
,,0.723 µM,0.723 µM,7 µM,O=C(NC1CC2(CC2)C1)c1ccc2nc(-c3ccccc3)cn2c1 [Compound 118]
,,13 µM,13 µM,23 µM,COC[C@@H]1CC[C@H]1NC(=O)c1ccc2nc(-c3ccccc3)cn2c1 [Compound 121]
,,6 µM,6 µM,19 µM,C#C[C@H]1C[C@@H](NC(=O)c2ccc3nc(-c4ccccc4)cn3c2)C1 [Compound 122]
,,21 µM,21 µM,56 µM,O=C(N[C@@H]1CC[C@H]1O)c1ccc2nc(-c3ccccc3)cn2c1 [Compound 124]
,,61 µM,61 µM,22 µM,CO[C@@H]1CC[C@H]1NC(=O)c1ccc2nc(-c3ccccc3)cn2c1 [Compound 126]
,,58 µM,58 µM,32 µM,COC[C@@H]1CC[C@@H]1NC(=O)c1ccc2nc(-c3ccccc3)cn2c1 [Compound 127]
